Test results reported in the supplement of paper PMC10331698.
± gives the standard deviation of the averaged measurements.

Assays:
Experiment in all cases: level (log10 ratio to DMSO vehicle control); higher = higher biomarker level / cell amount than vehicle control
Conditions in all cases: in DMSO
[1] = compound: C=C(C)C(=O)OCC(F)(F)C(F)(F)C(F)(F)C(F)(F)C(F)(F)C(F)(F)C(F)(F)F
Protocol: (§1)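 BioMAP Diversity Plus panel of 12 human primary cell co-culture systems (3C, 4H, LPS, SAg, BT, BF4T, BE3C, CASM3C, HDF3CGF, KF3CT, MyoF, Mphg). Compounds were added 1 h before stimulation and left for 24 h (MyoF 48 h; BT 72 h for soluble read-outs or 6 d for IgG). Biomarkers were read by ELISA, cytotoxicity by SRB, PBMC viability and proliferation by Alamar Blue. Each well value was divided by the mean of 8 DMSO control wells on the same plate and log10 transformed; duplicate blinded samples were tested at 4 concentrations.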

[2] = compound: CNS(=O)(=O)C(F)(F)C(F)(F)C(F)(F)C(F)(F)C(F)(F)C(F)(F)C(F)(F)C(F)(F)F [N-Methylperfluorooctanesulfonamide]
Protocol: as §1

[3] = compound: Cn1cnc([N+](=O)[O-])c1Sc1ncnc2[nH]cnc12 [Azathioprine]
Protocol: as §1

[4] = compound: O=C(O)C(F)(F)C(F)(F)C(F)(F)C(=O)O [Hexafluoroglutaric acid]
Protocol: as §1

[5] = compound: O=C(O)C(F)(F)OC(F)(F)C(F)(F)OC(F)(F)C(F)(F)C(F)(F)C(F)(F)F [Perfluoro-3,6-dioxadecanoic acid]
Protocol: as §1

[6] = compound: O=C(O)CCC(F)(F)C(F)(F)C(F)(F)F [3:3 Fluorotelomer carboxylic acid]
Protocol: as §1

Row | Test System | level (log10) ([1]; 6700 nM) | level (log10) ([1]; 20000 nM) | level (log10) ([2]; 6700 nM) | level (log10) ([2]; 20000 nM) | level (log10) ([2]; 60000 nM) | level (log10) ([3]; 1400 nM) | level (log10) ([3]; 4200 nM) | level (log10) ([3]; 13000 nM) | level (log10) ([3]; 38000 nM) | level (log10) ([4]; 6700 nM) | level (log10) ([4]; 20000 nM) | level (log10) ([4]; 60000 nM) | level (log10) ([5]; 6700 nM) | level (log10) ([5]; 20000 nM) | level (log10) ([5]; 60000 nM) | level (log10) ([6]; 6700 nM) | level (log10) ([6]; 20000 nM) | level (log10) ([6]; 60000 nM)
1 | HDF3CGF:CXCL9/MIG | 0.02 ± 0.024 | 0.0165 ± 0.015 | -0.0065 ± 0.03 | 0.0105 ± 0.011 | -0.0205 ± 0.011 | -0.002 ± 0.018 | -0.0215 ± 0.013 | -0.026 ± 0.02 | -0.0645 ± 0.005 | -0.013 ± 0.014 | -0.025 ± 0.011 | -0.005 ± 0.013 | -0.0175 ± 0.0064 | -0.046 ± 0.092 | -0.126 | -0.0115 ± 0.018 | -0.005 ± 0.0057 | 0.0295 ± 0.025
2 | HDF3CGF:CXCL10/IP-10 | -0.012 ± 0.0042 | -0.002 ± 0.025 | -0.102 ± 0.064 | -0.099 ± 0.071 | -0.0875 ± 0.022 | -0.0225 ± 0.022 | -0.037 ± 0.044 | -0.0825 ± 0.012 | -0.152 ± 0.0078 | 0.0035 ± 0.021 | -0.008 ± 0.0071 | -0.011 ± 0.037 | -0.0505 ± 0.019 | -0.0745 ± 0.026 | -0.156 ± 0.04 | -0.0005 ± 0.013 | 0.003 ± 0.0042 | -0.011 ± 0.011
3 | HDF3CGF:CXCL11/I-TAC | 0.016 ± 0.0071 | -0.009 ± 0.023 | -0.0385 ± 0.015 | -0.069 ± 0.0071 | -0.0495 ± 0.011 | -0.0495 ± 0.018 | -0.042 ± 0.055 | -0.078 ± 0.014 | -0.21 ± 0.04 | 0.014 ± 0.0014 | -0.011 ± 0.072 | -0.0115 ± 0.061 | -0.0355 ± 0.023 | -0.0895 ± 0.028 | -0.168 ± 0.024 | 0.0025 ± 0.0092 | -0.0065 ± 0.0078 | 0.012 ± 0.035
4 | HDF3CGF:Collagen I | -0.0035 ± 0.0078 | 0.0375 ± 0.005 | -0.0245 ± 0.012 | -0.041 ± 0.038 | 0.0085 ± 0.066 | -0.0185 ± 0.005 | -0.059 ± 0.044 | -0.0475 ± 0.028 | -0.034 ± 0.064 | -0.03 ± 0.014 | -0.0385 ± 0.0078 | 0.0105 ± 0.071 | -0.052 ± 0.011 | -0.0485 ± 0.0064 | -0.095 ± 0.13 | -0.029 ± 0.0042 | -0.006 ± 0.035 | 0.0325 ± 0.07
5 | HDF3CGF:Collagen III | -0.004 ± 0.0042 | -0.0005 ± 0.0078 | -0.102 ± 0.0035 | -0.143 ± 0.011 | -0.092 ± 0.037 | -0.0145 ± 0.074 | -0.114 ± 0.088 | -0.101 ± 0.0064 | -0.22 ± 0.096 | -0.0065 ± 0.015 | -0.0275 ± 0.00071 | -0.0125 ± 0.00071 | -0.024 ± 0.044 | -0.0885 ± 0.035 | -0.286 ± 0.045 | -0.012 ± 0.017 | -0.007 ± 0.025 | 0.0245 ± 0.054
6 | HDF3CGF:EGFR | 0.0245 ± 0.005 | -0.007 ± 0.048 | 0.016 ± 0.0057 | -0.014 ± 0.023 | 0.0055 ± 0.0064 | -0.006 ± 0.0014 | -0.0565 ± 0.076 | -0.05 ± 0.061 | -0.011 ± 0.1 | -0.021 ± 0.061 | -0.0285 ± 0.056 | -0.021 ± 0.072 | -0.0005 ± 0.0064 | -0.0815 ± 0.026 | -0.135 ± 0.016 | -0.023 ± 0.018 | -0.012 ± 0.024 | -0.003 ± 0.045
7 | HDF3CGF:M-CSF | 0.009 ± 0.033 | 0.0245 ± 0.03 | 0.0055 ± 0.018 | 0.006 ± 0.025 | -0.001 ± 0.027 | -0.0255 ± 0.039 | -0.018 ± 0.042 | -0.0595 ± 0.011 | -0.184 ± 0.025 | -0.0015 ± 0.013 | -0.006 ± 0.033 | -0.0285 ± 0.029 | -0.0555 ± 0.067 | -0.065 ± 0.011 | -0.152 ± 0.0078 | 0.002 ± 0.0099 | -0.004 ± 0.0042 | 0.001 ± 0.013
8 | HDF3CGF:MMP-1 | -0.003 ± 0.02 | -0.0045 ± 0.026 | -0.008 ± 0.016 | -0.005 ± 0.011 | 0.0005 ± 0.013 | 0.0005 ± 0.0021 | 0.02 ± 0.021 | 0.0275 ± 0.022 | 0.0415 ± 0.0021 | 0.0195 ± 0.0092 | 0.002 ± 0.02 | -0.0045 ± 0.021 | -0.023 ± 0.011 | -0.0485 ± 0.013 | -0.068 ± 0.011 | 0.0045 ± 0.037 | 0.009 ± 0.017 | 0.0045 ± 0.015
9 | HDF3CGF:PAI-I | 0.011 ± 0.0099 | 0.0095 ± 0.019 | 0.051 ± 0.0028 | 0.0455 ± 0.019 | 0.063 ± 0.02 | 0.022 ± 0.054 | -0.015 ± 0.037 | -0.0545 ± 0.04 | -0.198 ± 0.021 | -0.0115 ± 0.016 | -0.007 ± 0.014 | 0.0075 ± 0.021 | 0.0225 ± 0.013 | 0.0375 ± 0.0021 | 0.045 ± 0.024 | -0.006 ± 0.031 | -0.0035 ± 0.023 | 0.0085 ± 0.005
10 | HDF3CGF:Proliferation 72hr | 0.019 ± 0.018 | 0.001 ± 0.038 | -0.001 ± 0.073 | 0.0205 ± 0.073 | -0.056 ± 0.095 | -0.0455 ± 0.079 | -0.061 ± 0.035 | -0.057 ± 0.0057 | -0.162 ± 0.027 | -0.011 ± 0.059 | -0.013 ± 0.028 | -0.008 ± 0.05 | 0.0245 ± 0.00071 | 0.116 ± 0.011 | -0.0545 ± 0.036 | -0.0095 ± 0.015 | 0.0385 ± 0.0092 | 0.021 ± 0.027
11 | HDF3CGF:SRB | 0.0255 ± 0.11 | 0.044 ± 0.12 | -0.032 ± 0.03 | 0.005 ± 0.023 | -0.008 ± 0.014 | -0.0505 ± 0.04 | -0.053 ± 0.02 | -0.018 ± 0.025 | -0.0325 ± 0.079 | -0.03 ± 0.083 | -0.0095 ± 0.097 | 0.0245 ± 0.12 | 0.0265 ± 0.033 | 0.0885 ± 0.022 | 0.0485 ± 0.079 | 0.029 ± 0.061 | 0.0105 ± 0.0078 | 0.011 ± 0.05
12 | HDF3CGF:TIMP-1 | 0.041 ± 0.038 | 0.036 ± 0.03 | 0.0335 ± 0.016 | -0.025 ± 0.038 | 0.012 ± 0.02 | -0.0195 ± 0.005 | -0.0115 ± 0.033 | -0.018 ± 0.024 | -0.0695 ± 0.06 | -0.0385 ± 0.026 | -0.02 ± 0.072 | -0.045 ± 0.073 | -0.0085 ± 0.00071 | 0.006 ± 0.11 | 0.0755 ± 0.083 | 0.0025 ± 0.019 | 0.004 | 0.0015 ± 0.0035
13 | HDF3CGF:TIMP-2 | 0.0535 ± 0.0092 | 0.0035 ± 0.056 | -0.094 ± 0.0057 | -0.136 ± 0.046 | -0.049 ± 0.044 | -0.0175 ± 0.00071 | -0.023 ± 0.048 | 0.0315 ± 0.056 | 0.049 ± 0.018 | -0.041 ± 0.0014 | 0.01 ± 0.0028 | -0.0345 ± 0.0021 | -0.0245 ± 0.028 | -0.035 ± 0.0085 | -0.0625 ± 0.0078 | -0.0075 ± 0.023 | -0.0015 ± 0.0035 | -0.0195 ± 0.0064
14 | KF3CT:CCL2/MCP-1 | -0.016 ± 0.025 | 0.0325 ± 0.03 | 0.029 ± 0.017 | -0.01 ± 0.014 | -0.0185 ± 0.005 | -0.0045 ± 0.0092 | -0.008 ± 0.0099 | -0.0335 ± 0.015 | -0.015 ± 0.0014 | -0.0255 ± 0.04 | -0.0325 ± 0.067 | -0.0245 ± 0.0021 | -0.0115 ± 0.018 | -0.014 ± 0.0071 | -0.08 ± 0.0042 | -0.005 ± 0.025 | -0.0135 ± 0.016 | 0.0225 ± 0.046
